Test results as given in patent US4056540A, “4-Phenyl-1,3-benzodioxans” (Bristol-Myers Company, priority 1975, dated 1977).
Structures can show the parent of a compound that is named as a salt. Where two headings read alike, the source gives them in different places.

Experiments:
[1] = system: ouabain-induced ventricular arrhythmias; assay: Reversion of ouabain-induced arrhythmia in anesthetized dogs; type: in vivo, dog; conditions: for ED100: Canis lupus familiaris, 0.5 h, read-out: I. V. Reverting Dose
Method: The compounds were also tested in dogs for their reversion activity in ouabain-induced arrhythmia.
(§1) Anesthetized dogs were used for the production of ouabain-induced ventricular arrhythmias. The arrhythmia consisted of a nodal or ventricular tachycardia. The procedure used to establish the arrhythmia as well as the criteria employed to determine anti-arrhythmic activity generally was that employed by Lucchesi et al. ^1
1. Lucchesi, B. L. and H. F. Hardman: The influence of dichloroisoproterenol (DCI) and related compounds upon ouabain and acetylstrophanthidin induced cardiac arrhythmias.

[2] = system: tonic convulsions induced by maximal electroshock; assay: Maximal Electroshock Test, mouse; type: in vivo; conditions: for ED50: 1 h, po, read-out: ED50 Maximal Electroshock Mouse; for blocking of tonic convulsions induced by maximal electroshock: result in words, species not given
Method: (§2) ^1 Test compounds including reference agents were administered orally
(§3) either as water solutions or as fine suspensions in Tween by gastric
(§4) intubation 60 min prior to the test. There were at least 3 animals per
(§5) ^2 Maximal Electroshock Test - Animals were subjected to an 80mA shoc
(§6) of 0.5 sec duration by a means of corneal electrodes using the specially
(§7) designed apparatus manufactured by Wahlquist Instrument Co. Prevention of
(§8) tonic extension by hind limbs was used as a criterion for drug effect.

[3] = system: tonic convulsions induced by maximal electroshock; assay: Maximal Electroshock Test, rat; type: in vivo; conditions: 1 h, po, read-out: ED50 Maximal Electroshock Rat
Method: as §2, §3, §4, §5, §6, §7, §8

audiogenic seizures = assay: Audiogenic Seizures, mouse; type: in vivo; conditions: for ED50: 1 h, po, read-out: ED50 Audiogenic Seizure Mouse; for blocking of tonic convulsions induced by audiogenic seizures: result in words
Method: as §2, §3, §4
^3 Audiogenic Seizures - Mice, which were genetically bred for the
susceptability to sound induced seizures (O'Grady Farms) were placed into
the sound attenuated box and exposed to a 120 sec sound stimulus of 85 db
and 10,000 c/sec frequincy. Prevention of tonic extension of hind limbs
was used as a criterion for drug effect.

[4] = system: pentylenetetrazole convulsions; assay: Pentylenetetrazol Infusion (Mouse); type: in vivo; conditions: for ED50: 1 h, po, read-out: ED50 Pentylenetetrazole Mouse (infusion); for antagonism of all the excitatory signs induced by pentylenetetrazol: clonic and tonic convulsions and lethality, result in words
Excerpt: (§9) There were at least 3 animals per
^4 Pentylenetetrazol Infusion (Mouse) - The procedure originally
described by Orloff, M. H. et al., Proc. Soc. Exp. Biol. 70:254 (1949) an
adopted by our laboratories was used.

[5] = system: pentylenetetrazole lethality; assay: Pentylenetetrazol Standard Dose, mouse; type: in vivo; conditions: for ED50: 1 h, mouse, po, pentylenetetrazol 125 mg/kg ip, prevention of lethality (footnote 5); for effectiveness against pentylenetetrazole: result in words, species not given
Excerpt: as §9
(§10) Prevention of lethality was used as criterion for […]

[6] = system: pentylenetetrazole lethality; assay: Pentylenetetrazol Standard Dose, rat; type: in vivo; conditions: 1 h, po, pentylenetetrazol 125 mg/kg ip, prevention of lethality (footnote 5)
Excerpt: as §9, §10

in vivo = conditions: mouse, po, 24 hours observation
Excerpt: hours following drug administration.

[7] = Effect on aortic blood pressure in the ouabain-arrhythmia anesthetized dog; type: in vivo; conditions: iv; for effect on aortic blood pressure: result in words
Method: as §1
Anti-arrhythmic activity of the compounds was determined by rapid intravenous injection and compared to lidocaine, disopyramide and aprindine The average prolonged reversion doses are shown below: […]

[8] = anesthetized dog, rapid intravenous injection, IV ED100, normal sinoatrial rhythm for greater than 30 mins
[9] = mouse, 60 min prior to test, prevention of tonic extension of hind limbs
[10] = rat, 60 min prior to test, prevention of tonic extension of hind limbs
[11] = mouse, 60 min prior to test, prevention of tonic extension
[12] = mouse, pentylenetetrazol infusion (footnote 4)

## CNC(=O)[C@@H]1Oc2ccc(Cl)cc2[C@@H](c2ccccc2)O1 (relative stereo) [BL-3167]
[1]; [8]
  ED100: > 10 mg/kg

## CC(C)NC[C@H]1Oc2ccc(Cl)cc2[C@H](c2ccccc2F)O1.Cl (relative stereo) [BL-3681A, trans-6-Chloro-4-(2-fluorophenyl)-2-(2-propylaminomethyl)-1,3-benzodioxan hydrochloride]
[2]; [9]
  ED50: 12 mg/kg
[2]
  blocking of tonic convulsions induced by maximal electroshock: effective blocking agents of tonic convulsions
[3]; [10]
  ED50: 15 mg/kg
Audiogenic seizures; [11]
  ED50: 10 mg/kg
Audiogenic seizures
  blocking of tonic convulsions induced by audiogenic seizures: effective blocking agents of tonic convulsions
[4]; [12]
  ED50: 12 mg/kg
[5]
  ED50: > 50 mg/kg
  effectiveness against pentylenetetrazole: practically ineffective
[6]
  ED50: > 40 mg/kg
In vivo
  LD50 at 24 h: 300 mg/kg

## CC(C)NC[C@@H]1Oc2ccccc2[C@H](c2ccccc2)O1 (relative stereo) [BL-3418]
[1]; [8]
  ED100: 3 to 5 mg/kg

## CN(C)CCCNC(=O)[C@H]1Oc2ccc(Cl)cc2[C@H](c2ccccc2)O1.Cl (relative stereo) [BL-4932A, trans-6-Chloro-4-phenyl-N-(3-dimethylaminopropyl)-1,3-benzodioxan-2-carboxamide hydrochloride]
[1]; anesthetized dog, iv, transient reversion only (N=2)
  Transient reversion at: 10 mg/kg
[7]; at 10 mg/kg (N=2)
  transient fall in aortic blood pressure: 50 mmHg

## O=C1NC(=O)C(c2ccccc2)(c2ccccc2)N1 [Diphenylhydantoin Na, reference compound]
[2]; [9]
  ED50: 10 mg/kg
[3]; [10]
  ED50: 30 mg/kg
Audiogenic seizures; [11]
  ED50: 10 mg/kg
[4]; [12]
  ED50: 20 mg/kg
[5]
  ED50: > 50 mg/kg
[6]
  ED50: 40 mg/kg

## CNC[C@H]1Oc2ccc(Cl)cc2[C@@H](c2ccccc2)O1.Cl (relative stereo) [BL-3168, cis-6-Chloro-2-methylaminomethyl-4-phenyl-1,3-benzodioxan hydrochloride]
[2]; [9]
  ED50: 10 mg/kg
[2]
  blocking of tonic convulsions induced by maximal electroshock: effective blocking agents of tonic convulsions
[3]; [10]
  ED50: 15 mg/kg
Audiogenic seizures; [11]
  ED50: 2.5 mg/kg
Audiogenic seizures
  blocking of tonic convulsions induced by audiogenic seizures: effective blocking agents of tonic convulsions
[4]; [12]
  ED50: 5 mg/kg
[5]
  ED50: > 50 mg/kg
  effectiveness against pentylenetetrazole: practically ineffective
[6]
  ED50: > 40 mg/kg
In vivo
  LD50 at 24 h: 300 mg/kg
[1]; [8]
  ED100: > 10 mg/kg
[7]
  Decrease in mean aortic pressure: 20 mmHg

## CC(C)NC[C@@H]1Oc2ccccc2[C@@H](c2ccccc2)O1 (relative stereo) [BL-3394]
[1]; [8]
  ED100: ~10 mg/kg
[7]
  effect on aortic blood pressure: gressive fall in aortic

## CCN(CC)CCCN(c1ccccc1)C1Cc2ccccc2C1 [Aprindine, reference compound]
[1]; [8]
  ED100: 2.46 ± 0.83 mg/kg

## CC(C)NC[C@@H]1Oc2ccc(Cl)cc2[C@@H](c2ccccc2)O1 (relative stereo) [BL-3379]
[1]; [8]
  ED100: > 10 mg/kg

## NC[C@@H]1Oc2ccc(Cl)cc2[C@H](c2ccccc2)O1 (relative stereo) [BL-3069]
[2]; [9]
  ED50: 25 mg/kg
[2]
  blocking of tonic convulsions induced by maximal electroshock: effective blocking agents of tonic convulsions
[3]; [10]
  ED50: > 20 mg/kg
Audiogenic seizures
  blocking of tonic convulsions induced by audiogenic seizures: effective blocking agents of tonic convulsions
[4]; [12]
  ED50: 12 mg/kg
[5]
  effectiveness against pentylenetetrazole: practically ineffective
[6]
  ED50: > 40 mg/kg
In vivo
  LD50 at 24 h: 300 mg/kg

## CN(C)CCCNC(=O)[C@H]1Oc2ccccc2[C@@H](c2ccccc2)O1.Cl (relative stereo) [BL-4981A, cis-4-Phenyl-N-(3-dimethylaminopropyl)-1,3-benzodioxan-2-carboxamide hydrochloride]
[1]; [8]
  ED100: > 10 mg/kg

## CN1C(=O)CN=C(c2ccccc2)c2cc(Cl)ccc21 [Diazepam, reference compound]
[2]; Mus musculus
  ED50: 6 mg/kg
[3]; Rattus norvegicus
  ED50: 10 mg/kg
Audiogenic seizures; Mus musculus
  ED50: 0.5 mg/kg
[4]
  antagonism of all the excitatory signs induced by pentylenetetrazol: able to antagonize all the excitatory signs

## CCN(CC)CC(=O)Nc1c(C)cccc1C [Lidocaine, reference compound]
[1]; iv
  ED100: 6.4 ± 1.4 mg/kg

## CN(C)CCCNC(=O)[C@H]1Oc2ccc(Cl)cc2[C@@H](c2ccccc2)O1.Cl (relative stereo) [BL-4971A, cis-6-Chloro-4-phenyl-N-(3-dimethylaminopropyl)1,3-benzodioxan-2-carboxamide hydrochloride]
[1]; [8]
  ED100: 5 mg/kg
[7]
  effect on aortic blood pressure: No appreciable effect

## CC(C)NC[C@@H]1Oc2ccc(Cl)cc2[C@H](c2ccccc2)O1 (relative stereo) [BL-3396, cis-6-Chloro-4-phenyl-2-(2-propylaminomethyl)-1,3-benzodioxan hydrochloride]
[2]; [9]
  ED50: 10 mg/kg
[3]; [10]
  ED50: 10 mg/kg
Audiogenic seizures; [11]
  ED50: 2.5 mg/kg
[4]; [12]
  ED50: 3 mg/kg
[5]
  ED50: > 50 mg/kg
[6]
  ED50: > 40 mg/kg
In vivo
  LD50 at 24 h: 400 mg/kg

## CC(C)NC(=O)[C@@H]1Oc2ccc(Cl)cc2[C@@H](c2ccccc2)O1 (relative stereo) [BL-3374]
[1]; [8]
  ED100: > 10 mg/kg

## CN1C(=O)OC(C)(C)C1=O [Trimethadione, reference compound]
[2]; [9]
  ED50: > 400 mg/kg
[3]; [10]
  ED50: 300 mg/kg
Audiogenic seizures; [11]
  ED50: 150 mg/kg
[4]; [12]
  ED50: 200 mg/kg
[4]
  antagonism of all the excitatory signs induced by pentylenetetrazol: able to antagonize all the excitatory signs
[5]
  ED50: 400 mg/kg
[6]
  ED50: 100 mg/kg
In vivo
  LD50 at 24 h: 2170 mg/kg

## CCC1(c2ccccc2)C(=O)NC(=O)NC1=O [Phenobarbital Na, reference compound]
[2]; Mus musculus
  ED50: 10 mg/kg
[3]; Rattus norvegicus
  ED50: 8 mg/kg
Audiogenic seizures; Mus musculus
  ED50: 2.5 mg/kg
[4]; Mus musculus
  ED50: 8 mg/kg
[4]
  antagonism of all the excitatory signs induced by pentylenetetrazol: able to antagonize all the excitatory signs
[5]
  ED50: 15 mg/kg
[6]
  ED50: 20 mg/kg
In vivo
  LD50 at 24 h: 265 mg/kg

## CC(C)N(CCC(C(N)=O)(c1ccccc1)c1ccccn1)C(C)C (centres unmarked) [Disopyramide, reference compound]
[1]; [8]
  ED100: 4.5 ± 1.3 mg/kg

## CNC(=O)[C@@H]1Oc2ccc(Cl)cc2[C@H](c2ccccc2)O1 (relative stereo) [BL-4093]
[1]; [8]
  ED100: > 10 mg/kg

## CNC[C@@H]1Oc2ccc(Cl)cc2[C@@H](c2ccccc2)O1 (relative stereo) [BL-3100]
[1]; [8]
  ED100: > 10 mg/kg
[7]
  Decrease in mean aortic pressure: 50 mmHg
